From USRE35053E, “Amines useful in producing pharmaceutically active CNS compounds” (The Upjohn Company, priority 1992, dated 1995)

Columns and labels:
angiogenesis = test: fertile egg or chick embryo assay of Folkman (inhibition of angiogenesis / tumor growth); format: in vivo; conditions: chick embryo; 50 μg/10 μl in the presence of heparin
Method: According to this procedure compounds which are considered to be "active" (i.e, antiangiogenic) give an avascular zone of 4 mm or greater in some embryos when tested at 50 μg/10 μl in the presence of 50 μg/10 μ of heparin.

aspirin induced ulcer = test: aspirin/cold induced ulcer assay of Rainsford; format: in vivo; conditions: active = 50% or more reduction of ulcer index
[1] = system: induced mucous secretions; test: inhibition of mucous secretion assay of Johnson; conditions: inhibit or block enhancement of induced mucous secretions
Source text: The inhibition of mucous secretion assay of Johnson Int. […] According to this procedure compounds which inhibit or block enhancement of induced mucous secretions when tested are considered to be "active".

interleukin-1 = test: inhibition of interleukin-1 induced T cell proliferation assay; format: cell-based; conditions: interleukin-1; 10^-6 M
Source text: The inhibition of interleukin-1 induced T cell proliferation assay, Proc. Nat. […] Since people with arthritis make excess interleukin 1, compounds which inhibit the activity of interleukin 1 are useful in the treatment of arthritis. According to this procedure compounds which inhibit the activity of interleukin 1 greater that 30% at 10^-6 M are considered to be "active".

[2] = system: AcylCoA:Cholesterol Acyltransferase (ACAT); test: AcylCoA:Cholesterol Acyltransferase (ACAT) inhibition Assay; format: cell-based; set-up: key: compounds which inhibit ACAT activity equal to, or greater than, that of chlorpromazine are considered "active"; conditions: active = equal to or greater than chlorpromazine; Fu5AH cells preferred
Source text: ACAT esterifies arterial cholesterol which is a key reaction in the development of atherosclerosis. The procedure of Bell, Can. J. Blochem. 60. […] In the ACAT assay it is preferred to use Fu5AH cells, see Lipids 9, 526 (1974). According to this procedure, compounds which inhibit ACAT activity equal to, or greater than, that of chlorpromazine are considered "active".

[3] = system: serum and arterial cholesterol; test: Antiatherosclerosis screen in Susceptible to Experimental Atherosclerosis (SEA) Japanese Quail; format: in vivo; conditions: SEA Japanese quail fed atherogenic diet; active = decrease >30 %
Method: While not necessary, some minor modifications for extraction of cholesterol from the artery have been made. These are as follows: frozen arteries are homogenized in hexane/isopropanol (3/2) and the volume adjusted with Triton 100 solution (1.5% in hexane/isopropanol) to 7 ml. After standing 12 hr at 20°-25°, the supernatant, obtained by low speed centrifugation is evaporated until dry and then the residue is suspended in 0.5 ml of 5% Triton 100 in isopropanol. This suspension is incubated for 10 min at 45° to dissolve the material. This solution as well as the diluted serum samples are analyzed for cholesterol by standard clinical chemistry analyzer methods. According to the above procedure compounds which decrease serum or arterial cholesterol >30 % are considered to be "active".
Compounds which reduce serum and arterial cholesterol and are useful in treating atherosclerosis and its complications; for example, reduction of serum cholesterol by drugs reduces the incidence of coronary heart disease JAMA 251, 351 (1984) and JAMA 251, 365 (1984).

SMILES | % of Embryos with 4 mm or Greater A vascular Zone (angiogenesis) [%] | anti-ulcer activity (aspirin induced ulcer) | inhibition of mucous secretion [1] | % Inhibition at 10^-6 M (interleukin-1) [%] | inhibition of ACAT [2] | reduction of arterial cholesterol [3] | reduction of serum cholesterol [3]
CCN(CC)c1cc(N2CCN(CC(=O)[C@@]3(O)CC[C@H]4[C@@H]5CCC6=CC(=O)CC[C@]6(C)C5=CC[C@@]43C)CC2)nc(N(CC)CC)n1 [Example 16, 17α-Hydroxy-21-[4-[2,6-bis(diethylamino)pyrimidinyl]-1-piperazinyl]pregna4,9(11)-diene-3,20-dione dihydro-chloridehydrate] | 91 | demonstrates anti-ulcer activity | demonstrate such activity | 84 | – | – | –
C[C@]12CCC(=O)C=C1CC[C@@H]1C2=CC[C@@]2(C)[C@H]1CC[C@]2(O)C(=O)CN1CCN(c2ccccn2)CC1.Cl [Example 3, 17α-Hydroxy-21-[4-(2-pyridinyl) 1 piperazinyl]pregna-4,9(11)-diene-3,20dione hydrogen chloride salt] | – | – | – | – | active | demonstrates reduction of serum and arterial cholesterol | demonstrates reduction of serum and arterial cholesterol
